The target of one test is T1, human V1a receptor (Homo sapiens, UniProt P37288).
T1 construct: expressed in transfected cells; host or cells: CHO K1 (ATCC), also stably transfected with a modified aequorin
As to the kind of experiment: Cellular in vitro assay for determining vasopressin receptor activity, V1a receptor cell line (CHO, aequorin luminescence). It counts as cell-based. The following applies: for IC50: CHO cell line transfected with human V1a receptor, [Arg]-vasopressin at EC50 concentration, read-out: IC50 hV1a; for ratio IC50 hV2/hV1a: selectivity ratio IC50 hV2 / IC50 hV1a. The procedure, abridged: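 Antagonism is measured in stable CHO K1 transfectants coexpressing the Gαq-coupled receptor and a calcium-sensitive aequorin photoprotein. Agonist challenge uses [Arg]-vasopressin at EC50 after a 10-minute compound exposure; IC50 values come from the luminescence signal.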

The next test concerns the target T2, human V2 receptor (Homo sapiens, UniProt P30518).
T2 construct: expressed in transfected cells; host or cells: CHO K1 (ATCC) expressing firefly luciferase under a CRE-responsive promoter
The test is described as follows: Cellular in vitro assay for determining vasopressin receptor activity, V2 receptor cell line (CHO, CRE-luciferase). It counts as cell-based. The settings on record: CHO cell line transfected with human V2 receptor, [Arg8]-vasopressin at EC50 concentration, read-out: IC50 hV2.

Like-named read-outs stand apart in the source and are kept apart here.

T1 sequence (P37288 whole entry): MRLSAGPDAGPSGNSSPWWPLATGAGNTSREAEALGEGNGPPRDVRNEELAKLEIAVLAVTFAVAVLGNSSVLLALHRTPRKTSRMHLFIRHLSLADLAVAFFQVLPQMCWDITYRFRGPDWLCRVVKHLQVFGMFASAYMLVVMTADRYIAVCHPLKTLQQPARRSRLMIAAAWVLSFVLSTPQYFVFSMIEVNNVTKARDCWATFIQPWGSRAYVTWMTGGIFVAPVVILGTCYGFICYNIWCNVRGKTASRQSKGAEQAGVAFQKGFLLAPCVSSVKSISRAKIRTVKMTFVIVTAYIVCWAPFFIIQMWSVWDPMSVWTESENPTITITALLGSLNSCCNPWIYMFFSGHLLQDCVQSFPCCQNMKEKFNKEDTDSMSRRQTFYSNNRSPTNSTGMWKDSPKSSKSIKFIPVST
T2 sequence (P30518 whole entry): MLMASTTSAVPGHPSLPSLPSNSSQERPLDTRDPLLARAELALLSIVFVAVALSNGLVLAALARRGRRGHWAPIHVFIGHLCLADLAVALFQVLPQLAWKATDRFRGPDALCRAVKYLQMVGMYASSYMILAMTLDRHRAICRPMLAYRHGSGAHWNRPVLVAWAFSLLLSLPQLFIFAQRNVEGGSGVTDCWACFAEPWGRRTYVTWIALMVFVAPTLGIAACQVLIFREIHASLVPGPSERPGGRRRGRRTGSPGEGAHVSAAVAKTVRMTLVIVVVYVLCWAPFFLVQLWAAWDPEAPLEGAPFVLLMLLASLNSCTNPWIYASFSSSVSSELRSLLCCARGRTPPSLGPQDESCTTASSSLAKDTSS

Consider `CC1CN(C(=O)c2cccc(Cl)c2-n2cnc(Cn3nc(-c4ccc(Cl)cc4)n(C[C@H](O)C(F)(F)F)c3=O)n2)CCO1` (mixture of isomers) [Example 377, 2-{[1-(2-Chloro-6-{[2-methylmorpholin-4-yl]carbonyl}phenyl)-1H-1,2,4-triazol-3-yl]methyl}-5-(4-chlorophenyl)-4-[(2S)-3,3,3-trifluoro-2-hydroxypropyl]-2,4-dihydro-3H-1,2,4-triazol-3-one], for which, on human V1a receptor, the half-inhibitory concentration (IC50) worked out at 0.295 µM and the “ratio IC50 hV2/hV1a” value was found to be 29.2. Moreover, the IC50 at human V2 receptor (3 hours) was found to be 8.6 µM.
The like results for `NC(=O)C1CCCN1C(=O)c1cccc(Cl)c1-n1cnc(Cn2nc(-c3ccc(Cl)cc3)n(C[C@H](O)C(F)(F)F)c2=O)n1` (mixture of isomers) [Example 378, 1-{3-Chloro-2-[3-({3-(4-chlorophenyl)-5-oxo-4-[(2S)-3,3,3-trifluoro-2-hydroxypropyl]-4,5-dihydro-1H-1,2,4-triazol-1-yl}methyl)-1H-1,2,4-triazol-1-yl]benzoyl}-prolinamide] were, in that order, 0.12 µM, 17.1 and 2.05 µM.
Consider `O=C(c1cccc(Cl)c1-n1cnc(Cn2nc(-c3ccc(Cl)cc3)n(C[C@H](O)C(F)(F)F)c2=O)n1)N1CCC(O)(C(F)(F)F)C1` (mixture of isomers) [Example 379, 2-{[1-(2-Chloro-6-{[hydroxy-3-(trifluoromethyl)pyrrolidin-1-yl]carbonyl}phenyl)-1H-1,2,4-triazol-3-yl]methyl}-5-(4-chlorophenyl)-4-[(2S)-3,3,3-trifluoro-2-hydroxypropyl]-2,4-dihydro-3H-1,2,4-triazol-3-one], for which the IC50 was 0.0705 µM at human V1a receptor and 0.845 µM at human V2 receptor (3 hours).
Consider `O=C(c1cccc(Cl)c1-n1cnc(Cn2nc(-c3ccc(Cl)cc3)n(C[C@H](O)C(F)(F)F)c2=O)n1)N1CCOC(C(F)(F)F)C1` (mixture of isomers) [Example 380, 5-(4-Chlorophenyl)-2-{[1-(2-chloro-6-{[2-(trifluoromethyl)morpholin-4-yl]carbonyl}phenyl)-1H-1,2,4-triazol-3-yl]methyl}-4-[(2S)-3,3,3-trifluoro-2-hydroxypropyl]-2,4-dihydro-3H-1,2,4-triazol-3-one], for which the IC50 on human V1a receptor was 0.0955 µM; on human V2 receptor (3 hours) it was 4 µM. Besides, the “ratio IC50 hV2/hV1a” value at human V1a receptor is 41.9.
On the same counts, the results for `O=C(c1cccc(Cl)c1-n1cnc(Cn2nc(-c3ccc(Cl)cc3)n(C[C@H](O)C(F)(F)F)c2=O)n1)N1CCC(C(F)(F)F)C1` (mixture of isomers) [Example 386, 5-(4-Chlorophenyl)-2-{[1-(2-chloro-6-{[3-(trifluoromethyl)pyrrolidin-1-yl]carbonyl}phenyl)-1H-1,2,4-triazol-3-yl]methyl}-4-[(2S)-3,3,3-trifluoro-2-hydroxypropyl]-2,4-dihydro-3H-1,2,4-triazol-3-one] are 0.17 µM, 4.15 µM and 24.4.
On the same counts, the results for `NC(CNC(=O)c1cccc(Cl)c1-n1cnc(Cn2nc(-c3ccc(Cl)cc3)n(C[C@H](O)C(F)(F)F)c2=O)n1)C(F)(F)F` (mixture of isomers) [Example 390, N-[2-Amino-3,3,3-trifluoropropyl]-3-chloro-2-[3-({3-(4-chlorophenyl)-5-oxo-4-[(2S)-3,3,3-trifluoro-2-hydroxypropyl]-4,5-dihydro-1H-1,2,4-triazol-1-yl}methyl)-1H-1,2,4-triazol-1-yl]benzamide] are 0.069 µM, 0.53 µM and 7.7.
As for `O=C(NC1CC1(F)F)c1cccc(Cl)c1-n1cnc(Cn2nc(-c3ccc(Cl)cc3)n(C[C@@H](O)C(F)(F)F)c2=O)n1` (mixture of isomers) [Example 395, 3-Chloro-2-[3-({3-(4-chlorophenyl)-5-oxo-4-[(2R)-3,3,3-trifluoro-2-hydroxypropyl]-4,5-dihydro-1H-1,2,4-triazol-1-yl}methyl)-1H-1,2,4-triazol-1-yl]-N-[2,2-difluorocyclopropyl]benzamide], on human V1a receptor, the concentration for half-maximal inhibition (IC50) stood at 0.082 µM and the “ratio IC50 hV2/hV1a” value came to 62.8. For the same compound, the IC50 on human V2 receptor (3 hours) was 5.15 µM.
As for `NC(=O)C1CCCN1C(=O)c1cccc(Cl)c1-n1cnc(Cn2nc(-c3ccc(Cl)cc3)n(C[C@@H](O)C(F)(F)F)c2=O)n1` (mixture of isomers) [Example 400, 1-{3-Chloro-2-[3-({3-(4-chlorophenyl)-5-oxo-4-[(2R)-3,3,3-trifluoro-2-hydroxypropyl]-4,5-dihydro-1H-1,2,4-triazol-1-yl}methyl)-1H-1,2,4-triazol-1-yl]benzoyl}-prolinamide], the IC50 came to 0.57 µM on human V1a receptor and 32 µM at human V2 receptor. Moreover, on human V1a receptor, the “ratio IC50 hV2/hV1a” value is listed as 56.1.
Take `O=C(NC1CC1F)c1cccc(Cl)c1-n1cnc(Cn2nc(-c3ccc(Cl)cc3)n(C[C@@H](O)C(F)(F)F)c2=O)n1` (mixture of isomers) [Example 406, 3-Chloro-2-[3-({3-(4-chlorophenyl)-5-oxo-4-[(2R)-3,3,3-trifluoro-2-hydroxypropyl]-4,5-dihydro-1H-1,2,4-triazol-1-yl}methyl)-1H-1,2,4-triazol-1-yl]-N-[2-fluorocyclopropyl]benzamide]: the IC50 is 0.026 µM at human V1a receptor and 10.1 µM on human V2 receptor. Further, the “ratio IC50 hV2/hV1a” value at human V1a receptor worked out at 390.4.
The like results for `NC(CNC(=O)c1cccc(Cl)c1-n1cnc(Cn2nc(-c3ccc(Cl)cc3)n(C[C@@H](O)C(F)(F)F)c2=O)n1)C(F)(F)F` (mixture of isomers) [Example 408, N-[2-Amino-3,3,3-trifluoropropyl]-3-chloro-2-[3-({3-(4-chlorophenyl)-5-oxo-4-[(2R)-3,3,3-trifluoro-2-hydroxypropyl]-4,5-dihydro-1H-1,2,4-triazol-1-yl}methyl)-1H-1,2,4-triazol-1-yl]benzamide] were, in that order, 0.4 µM, 8.5 µM and 21.3.
In the case of `O=C(NC1CC1(F)F)c1cccc(C(F)(F)F)c1-n1cnc(Cn2nc(-c3ccc(Cl)cc3)n(C[C@H](O)C(F)(F)F)c2=O)n1` (mixture of isomers) [Example 420, 2-[3-({3-(4-Chlorophenyl)-5-oxo-4-[(2S)-3,3,3-trifluoro-2-hydroxypropyl]-4,5-dihydro-1H-1,2,4-triazol-1-yl}methyl)-1H-1,2,4-triazol-1-yl]-N-[2,2-difluorocyclopropyl]-3-(trifluoromethyl)benzamide], on human V1a receptor, the IC50 was 0.0585 µM and the “ratio IC50 hV2/hV1a” value is recorded as 19.7. Further, the IC50 at human V2 receptor is 1.15 µM.
Take `NC(CNC(=O)c1ncccc1-n1cnc(Cn2nc(-c3ccc(Cl)cc3)n(C[C@H](O)C(F)(F)F)c2=O)n1)C(F)(F)F` (mixture of isomers) [Example 429, N-[(2R)-2-Amino-3,3,3-trifluoropropyl]-3-[3-({3-(4-chlorophenyl)-5-oxo-4-[(2S)-3,3,3-trifluoro-2-hydroxypropyl]-4,5-dihydro-1H-1,2,4-triazol-1-yl}methyl)-1H-1,2,4-triazol-1-yl]pyridine-2-carboxamide]: the IC50 at human V1a receptor was found to be 0.051 µM; on human V2 receptor, 1.4 µM. In addition, the “ratio IC50 hV2/hV1a” value at human V1a receptor was found to be 27.5.

A word on the IC50: it is the point on the concentration scale where inhibition reaches its midpoint.
